Tests used:
[1] = system: SW-620; test: Cytotoxicity against human SW620 cells assessed as cell growth inhibition incubated for 48 hrs by MTT assay; format: functional, cell-based; details: SW-620, 48 h
[2] = system: NCI-H460; test: Cytotoxicity against human NCI-H460 cells assessed as cell growth inhibition incubated for 48 hrs by MTT assay; format: functional, cell-based; details: NCI-H460, 48 h
[3] = system: Candida albicans; test: Antifungal activity against Candida albicans ATCC10231 assessed as fungal growth inhibition incubated for 24 hrs by spectrophotometric analysis; format: functional, organism-based; details: ATCC10231, 24 h
[4] = system: Escherichia coli; test: Antibacterial activity against gram negative Escherichia coli ATCC11775 assessed as bacterial growth inhibition incubated for 24 hrs by spectrophotometric analysis; format: functional, organism-based; details: ATCC11775, 24 h
[5] = system: Staphylococcus aureus; test: Antibacterial activity against gram positive Staphylococcus aureus ATCC25923 assessed as bacterial growth inhibition incubated for 24 hrs by spectrophotometric analysis; format: functional, organism-based; details: ATCC25923, 24 h

Measured: IC50

CC(=O)O[C@H]1[C@@H]2C(=O)c3c(C)cc(O)c4c3[C@@]1(COC4=O)C1=C2c2c(C)cc(O)c3c(=O)n([C@H]4CO[C@H](CO)[C@@H](O)[C@@H]4O)cc(c23)C1=O
> 30 µM: all assays above

Cc1cc(O)c2c3c1C(=O)[C@@H]1C4=C(C(=O)c5cn([C@H]6CO[C@H](CO)[C@@H](O)[C@@H]6O)c(=O)c6c(O)cc(C)c4c56)[C@@]3(COC2=O)[C@H]1O
> 30 µM: all assays above

CO[C@@]12c3c(C)cc(O)c4c(=O)n([C@H]5CO[C@H](CO)[C@@H](O)[C@@H]5O)cc(c34)C(=O)[C@@H]1[C@]13COC(=O)c4c(O)cc(C)c(c41)C(=O)[C@H]2[C@@H]3O
> 30 µM: all assays above

CC(=O)OC[C@H]1OC[C@H](n2cc3c4c(c(C)cc(O)c4c2=O)C2=C(C3=O)[C@]34COC(=O)c5c(O)cc(C)c(c53)C(=O)[C@H]2[C@@H]4OC(C)=O)[C@@H](O)[C@@H]1O
> 30 µM: all assays above

CO[C@@]12c3c(C)cc(O)c4c(=O)occ(c34)C(=O)[C@@H]1[C@]13COC(=O)c4c(O)cc(C)c(c41)C(=O)C2[C@@H]3OC(C)=O
> 30 µM: all assays above

CO[C@@]12c3c(C)cc(O)c4c(=O)n([C@H]5CO[C@H](CO)[C@@H](O)[C@@H]5O)cc(c34)C(=O)[C@@H]1[C@]13COC(=O)c4c(O)cc(C)c(c41)C(=O)[C@H]2[C@@H]3OC(C)=O
> 30 µM: all assays above

Source: ChEMBL document CHEMBL5252582, “Glyclauxins A-E: Dimeric Oxaphenalenone Aminoglycosides from an Australian Wasp Nest-Derived Fungus Talaromyces sp. CMB-MW102” (J Nat Prod, 2023)
